Laboratory results from PubChem BioAssay (NCI).
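Cultured in 96-well plates, cells were exposed to test compound for 48 hours across five concentrations. At the GI50, growth is halved. TGI: total growth inhibition.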

Experiments:
Assay in all cases: NCI anticancer screen, dose series, 48 h
[1] = test system: IGROV1 ovarian
[2] = test system: K-562 leukemia
[3] = test system: SNB-75 CNS
[4] = test system: SK-MEL-28 melanoma
[5] = test system: NCI/ADR-RES ovarian
[6] = test system: HL-60(TB) leukemia
[7] = test system: SK-MEL-5 melanoma
[8] = test system: MDA-N
[9] = test system: SF-268 CNS

Compound | TGI [1] | TGI [2] | TGI [3] | TGI [4] | TGI [5] | TGI [6] | TGI [7] | TGI [8] | TGI [9] | GI50 [9] | GI50 [3] | GI50 [4] | GI50 [5] | GI50 [6] | GI50 [7] | GI50 [1] | GI50 [2]
COc1ccc(CNc2nc(NCc3ccc(OC)cc3)nc(N3CCOCC3)n2)cc1 | > 100 µM | 26.2 µM | > 100 µM | > 100 µM | 13 µM | 13.6 µM | 24.4 µM | – | – | – | – | – | – | – | – | – | –
CC1(C)[C@@H]2C[C@H]1c1cnc(-c3ccccn3)cc1C2[C@@H]1c2cc(-c3ccccn3)ncc2[C@@H]2C[C@H]1C2(C)C (some centres not stated) | > 100 µM | > 100 µM | > 100 µM | > 100 µM | > 100 µM | > 100 µM | > 100 µM | > 100 µM | > 100 µM | – | – | – | – | – | – | – | –
N#CC1=CNc2sccc2S1(=O)=O | > 100 µM | – | > 100 µM | > 100 µM | > 100 µM | – | > 100 µM | > 100 µM | > 100 µM | – | – | – | – | – | – | – | –
CC1=CC[C@@H]2CC[C@]3(C)[C@H](CC[C@@H]4[C@@]5(C)CCCNC(C)(C)[C@@H]5CC[C@]43C)[C@H]2[C@@H]1C | – | – | 3.84 µM | 3.32 µM | 3.52 µM | 3.5 µM | 3.08 µM | – | 3.71 µM | 1.97 µM | 1.98 µM | 1.81 µM | 1.84 µM | 1.7 µM | 1.7 µM | – | –
CCOC(=O)c1cn(-c2ccc(Cl)cc2)c(=O)n2c1nc1ccccc12 | > 100 µM | > 100 µM | > 100 µM | > 100 µM | > 100 µM | – | > 100 µM | – | – | – | – | – | – | – | – | – | –
COC(OC)C(O)C1OC=CC1n1cnc2c(N)ncnc21 (configuration not stated) | > 100 µM | > 100 µM | > 100 µM | > 100 µM | > 100 µM | – | > 100 µM | > 100 µM | > 100 µM | – | – | – | – | – | – | – | –
CCOC(=O)c1sc2c(c1OC(=O)c1ccccc1)c(=O)n(-c1ccccc1)c(=S)n2-c1ccccc1 | 43.3 µM | > 100 µM | – | > 100 µM | 51 µM | > 100 µM | 49.7 µM | – | > 100 µM | – | – | – | – | – | – | – | –
Nc1nc2c(ncn2C2C=CC(CO)O2)c(=O)[nH]1 (configuration not stated) | – | – | > 100 µM | > 100 µM | > 100 µM | – | > 100 µM | > 100 µM | – | – | – | – | – | – | – | – | –
CCOC(=O)C(O)(NC(C)=O)C(F)(F)F (configuration not stated) | > 100 µM | > 100 µM | > 100 µM | > 100 µM | > 100 µM | > 100 µM | > 100 µM | > 100 µM | > 100 µM | – | – | – | – | – | – | – | –
O=C(O)c1ccc(Nc2nc3cc(C(F)(F)F)ccc3nc2C(=O)O)cc1 | > 100 µM | > 100 µM | > 100 µM | > 100 µM | > 100 µM | > 100 µM | > 100 µM | > 100 µM | > 100 µM | – | – | – | – | – | – | – | –
COc1cc(C2C3=C(COC3=O)OC(C)(C)Oc3cc4c(cc32)OCO4)cc(OC)c1OC (configuration not stated) | > 100 µM | > 36 µM | – | > 100 µM | – | 1.26 µM | 2.33 µM | 3.56 µM | > 31.6 µM | – | – | – | – | – | – | – | –
N#CCCN(CCCN(C(=O)Nc1ccccc1)c1ccccc1)C(=O)Nc1ccccc1 | > 100 µM | > 100 µM | > 100 µM | > 100 µM | > 100 µM | > 100 µM | > 100 µM | > 100 µM | – | – | – | – | – | – | – | – | –
Cc1ccc(O)c(C2=NNC(c3cccc(Br)c3)C2)c1 (configuration not stated) | > 100 µM | > 100 µM | – | – | > 100 µM | > 100 µM | > 100 µM | > 100 µM | > 100 µM | – | – | – | – | – | – | – | –
CCOC(=O)C1=C(C)NC(=S)NC1c1cccc(O)c1 (configuration not stated) | > 100 µM | > 100 µM | > 95.4 µM | > 100 µM | > 100 µM | 77.5 µM | > 100 µM | 39.3 µM | > 100 µM | – | – | – | – | – | – | – | –
CC[N+](CC)=c1ccc2nc3c(cc(N)c4ccccc43)oc-2c1 | – | – | 1.88 µM | – | – | 0.326 µM | 0.27 µM | – | – | – | 0.61 µM | – | – | 0.134 µM | 0.125 µM | – | –
CC[N+](C)(CC)CCN1C(=O)c2ccccc2S1(=O)=O | > 100 µM | – | > 100 µM | > 100 µM | > 100 µM | > 100 µM | > 100 µM | – | > 100 µM | – | – | – | – | – | – | – | –
CC#CC(O)(C(=O)OC1CCCN(C)C1)C1=CC=CCC1 (configuration not stated) | > 100 µM | > 100 µM | > 100 µM | > 100 µM | > 100 µM | > 100 µM | > 100 µM | > 100 µM | > 100 µM | – | – | – | – | – | – | – | –
CN(C(=O)c1ccc(Cl)s1)C(=S)N(C)C(=O)c1ccc(Cl)s1 | > 10 µM | > 10 µM | > 10 µM | > 10 µM | > 10 µM | > 10 µM | > 10 µM | > 10 µM | > 10 µM | – | – | – | – | – | – | – | –
CN1CC(c2ccccc2)N(CCCCN2CC(c3ccccc3)N(C)CC2c2ccccc2)CC1c1ccccc1 (configuration not stated) | > 100 µM | > 100 µM | > 100 µM | > 100 µM | > 100 µM | > 100 µM | > 100 µM | > 100 µM | > 100 µM | – | – | – | – | – | – | – | –
COc1cccc(-c2nc3sccn3c2-c2ccnc(NCCNC(=O)Nc3cccc(C(F)(F)F)c3)n2)c1 | 21.8 µM | > 100 µM | 21.7 µM | 26.2 µM | > 100 µM | 7.43 µM | 15.9 µM | – | 43.4 µM | 4.59 µM | 3.41 µM | 5.36 µM | 3.45 µM | 2.92 µM | 4.27 µM | 3.32 µM | 3.48 µM
Cc1cc(S(=O)(=O)Nc2nnc3cc(C(F)(F)F)cc(C)n23)c(S)cc1Cl | > 100 µM | > 100 µM | > 100 µM | > 100 µM | > 100 µM | > 100 µM | > 100 µM | > 100 µM | > 100 µM | – | – | – | – | – | – | – | –
O=C(NCCNCCO)N/N=C/c1ccc(Cl)cc1 | > 100 µM | > 100 µM | > 100 µM | > 100 µM | > 100 µM | > 100 µM | > 100 µM | > 100 µM | > 100 µM | – | – | – | – | – | – | – | –
CSc1ncc2c(n1)-c1ccccc1OC2N1CCCC1 (configuration not stated) | > 100 µM | > 100 µM | > 100 µM | – | > 100 µM | > 100 µM | > 100 µM | > 100 µM | > 100 µM | – | – | – | – | – | – | – | –
